Source: patent publication US6037386A, “Composition for inactivating irritants in fluids” (priority 1999, dated 2000)

How the values were obtained:
[1] = Product formed on mixing zinc salts with CHG / gel formation; type: physicochemical
Procedure: The following zinc salts were mixed with CHG for 1 hour and observed for the resulting product.

HBV = assay: Cidal concentration of CHG (1 minute kill), HBV; type: cell-based
HIV = assay: Cidal concentration of CHG (1 minute kill), HIV; type: cell-based
Staphylococcus aureus = assay: CFU in glove fingers inoculated with blood containing Staphylococcus aureus (synergistic activity); type: cell-based; conditions: 2 minutes; CHG 450 μg, ZnO 12.5 mg
Procedure: Synergistic Activity of Zinc Oxide and CHX. CHG, ZnO, and a combination thereof was added to each glove finger. Glove fingers were then inoculated with 0.1 mL of blood containing 10^5 CFU Staphylococcus aureusmL. After 2 minutes, 0.9 mL of LTSB was added, and 0.2 mL of the extract were plated to determine colony counts.
This experiment was carried out using the method described in Example 14.

zinc gluconate
gel formation (in words) [1]: forming a gel matrix when mixed with water or alcohol

N=C(NCCCCCCNC(=N)NC(=N)Nc1ccc(Cl)cc1)NC(=N)Nc1ccc(Cl)cc1 [CHG, chlorhexidine gluconate]
cidal concentration for HBV (1 minute kill) (HBV): the same as that for Staphylococcus aureus
cidal concentration for HIV (1 minute kill) (HIV): the same as that for Staphylococcus aureus
CFU/glove finger (Staphylococcus aureus): 1420 CFU/glove finger
